Experiment [1] deals with UMUC3 cells. Description: Cell cycle analysis (EdU/PI flow cytometry) of UMUC3 cells. The experiment is classed as cell-based, human. Particulars: 48 hours; Roscovetine 10 μM, CI-1040 1 μM, Nutlin-3a 10 μM, LEE011 10 μM. On the procedure: FIG. 10 is a bar diagram showing cell cycle distribution in UMUC3 cells, measured 48 hours post treatment, whereby the concentrations of the CDK4/6 inhibitors was as follows: Roscovetine: 10 μM, CI-1040: 1 μM, Nutlin-3a: 10 μM, and LEE011: 10 μM.
For cell cycle analysis cells were seeded in 6 well plates (2,5×10E4 c/well). 8 hours before infection with dl703, cells were treated with indicated concentration of cell cycle inhibitors. After infection with 10 MOI dl703 cells were again treated for 48 hours. Untreated cells and dl703 infected cells only, served as control. 48 h post infection cells were harvest by trypsinization and fixed with 80% ethanol while vortexing. To investigate the cell cycle status, fixed cells were centrifuged 5 min at RT and 300 g and ethanol was aspirated. Cells were resuspended and washed with 1%BSA-PBS (Bovine Serum Albumin) and again centrifuged. Cells were stained with EDU and cell cycle analysis were performed using the Click-iT™ Plus EdU Flow Cytometry Assay Kits, Catalog nos. C10632 from Thermo Fischer. In addition, after 3× times washing with 1% BSA/PBS cells were stained with PI (Propidium Iodine, 50 μg/ml). Measurement was directly performed after staining with a FACScalibur Flow Cytometry System. Data was analyzed with FlowJo software.
A general note: In flow cytometry, cells or beads pass a laser one at a time.

Another experiment concerns UMUC cells. Kind of experiment: Western blot of Rb, phRB and E2F-1 in UMUC cells treated with cell cycle inhibitors. The experiment is classed as cell-based, human. The note with it: 24 hours post-treatment; for Rb, phRB and E2F-1 expression: indicated concentrations. On the procedure: Western Blot analysis of UMUC cells treated with indicated concentrations of CI-1040, Roscovitine, Nutlin-3a and LEE011 (Ribociclib). 1×10^6 cells were seeded in 10 cm dishes. 24 hours post-treatment proteins were isolated using 1% SDS buffer, to achieve the disruption of the nuclear membrane. All samples were drawn up several times into a syringe to disrupt the DNA and subsequently centrifuged at 30000 rpm at 4° C. for 30 minutes. The supernatant was transferred to a new reaction tube and directly used for further steps or stored at −80° C. To separate the proteins a sodium dodecyl sulfate polyacrylamide gel electrophoresis was performed. By means of electrophoresis for approximately two hours at 100V at 4° C., 40 μg of total proteins were loaded and probed against specific indicated antibodies.
(Immunoblotting shows a protein as a band on a membrane.)

The subject of experiment [2] is T24 cells. Kind of experiment: IC-80 value of PARPi in T24 cells. Particulars: Homo sapiens, T-24. The format is cell-based. The procedure:
3000 T24 cells were seeded per well in 12-well plates and grown over-night in RPMI Medium containing 10% FCS at 37° C. Inhibitor-treatment of cells occurred 24 h past cell seeding and again 1 hour after infection by adding indicated concentration to the medium. Infection of cells took place 24 h past inhibitor-treatment in 250 μl Medium without serum. Fixation and SRB-staining took place at 1-5 days post infection (dpi: days post infection). 15 nM PARPi correspond to the IC-80 value in T24 cells.

The subject of experiment [3] is UMUC3 cells. Kind of experiment: IC-80 value of PARPi in UMUC3 cells. The experiment is classed as cell-based. Particulars: Homo sapiens. The procedure: Seeding of UMUC-3: 3000 cells were seeded per well in 12-well plates and grown over-night in DMEM Medium containing 10% FCS at 37° C. Inhibitor-treatment of cell occurred 24 h past seeding and again 1 hour after infection by adding indicated concentration to the medium. Infection of cells took place 24 h past inhibitor-treatment. Fixation and SRB-staining took place at 1-6 days post infection (dpi: days post infection). 160 nM PARPi correspond to the IC-80 value in UMUC3 cells.

The next experiment concerns RT112. Description: IC50 concentration of PD-0332991 in bladder cancer cell line RT112. The format is cell-based. The note with it: Homo sapiens, RT-112. The procedure:
(§1) The class of CDK4/6 inhibitors as subject to Example 5 requires expression of RB. Therefore, three RB positive and two RB negative bladder cancer derived cell lines were used and the cells treated with the combination therapy. Cell lines were pretreated for 24 hours with an IC50 concentration of PD-0332991 (T24: 500 nM, RT112: 2000 nM, 253J: 100 nM) and infected with XVir-N-31(T24 M0150, 253J MOI 25, RT112 MOI450). Values are the average of at least 2 independent experiments. Error bars show the standard error. Four dpi, cell viability was measured using SRB assays (a, c). (b, d) Lysates of cells were prepared 3 dpi and a titer test was performed on Hek293 cells. Viral titer is shown as fold change relative to control

For a further experiment, the system named is T24. Description: IC50 concentration of PD-0332991 in bladder cancer cell line T24. The format is cell-based. The note with it: Homo sapiens, T-24. The procedure: as §1
The next experiment deals with 253J. Kind of experiment: IC50 concentration of PD-0332991 in bladder cancer cell line 253J. The format is cell-based. The note with it: Homo sapiens. On the procedure: as §1
The test system of experiment [4] is SK-N-MC cells. Kind of experiment: Cell cycle distribution (propidium iodine) of SK-N-MC cells. The experiment is classed as cell-based. The note with it: 48 hours post treatment. On the procedure:
48 hours post treatment cells were washed twice took place with PBS (containing RNase A,100 U/ml). Cells were trypsinized and centrifuged at 1500 rpm, 4° C. for 5 min. Cells are fixed by adding slowly 1 ml of ice-cold 80% Ethanol drop by drop to the pellet and incubated overnight. Staining was performed by adding 1 ml of staining solution (Propidium Iodine,50 μg/ml) to the cells and incubating 30-60 min at RT with gentle rocking. MK: MK-1775; LY: LY-2835219.

The subject of another experiment is dl703. Description: DNA-replication analysis of dl703 in UMUC cells treated with cell cycle inhibitors (fiber qPCR). The experiment is classed as cell-based, Mastadenovirus, Type C, Serotype 5. The procedure:
To investigate the differences in replication of d1703 (Mantwill et al. 2013, Journal of Translational Medicine, 11, 216) under different treatment conditions, DNA-replication analysis was performed. 100.000 UMUC cells were seeded in 6-well plates and grown in DMEM medium containing 10% FCS in 5% CO2 conditions at 37° C. 24 hours post seeding cells were treated for 24 hours with 10 μM Lee (Ribociclib), 1 μM CI-1040, 10 μM Nutlin-3a and 10 μM Roscovertine and again after infection adding an appropriate amount of inhibitors to the medium. Infection with 50 MOI dl703 (Mastadenovirus, Type C, Serotype 5 with a 3.2 kb sized deletion in E1 region) took place 24 hours post treatment. After 4 and 48 hours post infection DNA were isolated and qPCR was performed using specific primers for the viral fiber gene. Fiber fwd. 5′-[…]-3′; Fiber rev. 5′-[…]-3′.
For orientation: Quantitative PCR measures a nucleic acid by following its amplification.

The test system of experiment [5] is SK-N-MC cells. Description: Potency assay (SRB) of SK-N-MC cells, XVir-N-31, Abemaciclib and JQ1. The experiment is classed as cell-based. The note with it: 500 nM JQ1 added to 200 nM Abemaciclib, XVir-N-31, 5 days post infection. The procedure:
FIG. 16 is a bar diagram showing the result of a potency assay of SK-N-MC cells 5 days after exposure to XVir-N-31 alone, with 200 nM abemaciclib, 500 nM JQ1 or a combination of 200 nM abemaciclib and 500 nM JQ1, as percentage cell survival, whereby the cells were either not infected or infected with an MOI of 5, 10 or 20.
100.000 SK-N-MC cells/well were seeded in 12-well plates and grown in RPMI Medium containing 10% FCS at 5% CO2 at 37° C. Cells were treated with 200 nM Abemaciclib+500 nM JQ1 24 hours before and again 1 hour post infection by adding appropriate amount to the medium. Infection of XVir-N-31 took place in 500 μl in RPMI Medium without serum. SRB-Staining took place 5 days post infection. Mock treated cells were set 100% cell survival.

In experiment [6] the test system is T24 cells. Kind of experiment: Potency assay (SRB) of T24 cells, XVir-N-31, Palbociclib and JQ-1. The experiment is classed as cell-based, human. The procedure:
5000 T24 cells were seeded in 12 well plates and grown in 1 ml RPMI-Medium containing 10% FCS. Next day cells were treated with 500 nM Palbociclib and 300 nM JQ-1. 24 hours post treatment cells were infected with indicated MOIs of XVir-N-31 in 200 μl RPMI-Medium containing no FCS. After 1 hour 800 μl RPMI-Medium containing 10% FCS were added into each well. In addition, 500 nM Palbociclib and 300 nM JQ-1 were added to the medium. SRB-Staining took place 5 days post infection. Mock treated cells were set 100% cell survival.

With `COc1ccc(C2=N[C@@H](c3ccc(Cl)cc3)[C@@H](c3ccc(Cl)cc3)N2C(=O)N2CCNC(=O)C2)c(OC(C)C)c1` [Nutlin-3a], the cell cycle distribution entry with UMUC3 cells [1] is “only little or no effect”. Moreover, the “Rb, phRB and E2F-1 expression” value with UMUC cells was “no pronounced effect”.
As to `Cn1ncnc1[C@H]1c2n[nH]c(=O)c3cc(F)cc(c23)N[C@@H]1c1ccc(F)cc1` [BMN673], the IC80 worked out at 0.015 µM with T24 cells [2] and 0.16 µM in the experiment on UMUC3 cells [3].
In the case of `CC(=O)c1c(C)c2cnc(Nc3ccc(N4CCNCC4)cn3)nc2n(C2CCCC2)c1=O` [PD-0332991, palbociclib], the IC50 is 2 µM in the experiment with RT112, 0.5 µM with T24 and 0.1 µM with 253J.
As for `CC[C@H](CO)Nc1nc(NCc2ccccc2)c2ncn(C(C)C)c2n1` [Roscovitine], the cell cycle distribution result in the experiment on UMUC3 cells [1] is “slight increase of G2/m arrested cells”. The “Rb, phRB and E2F-1 expression” value in the experiment on UMUC cells was “no pronounced effect”.
Consider `CCN1CCN(Cc2ccc(Nc3ncc(F)c(-c4cc(F)c5nc(C)n(C(C)C)c5c4)n3)nc2)CC1` [LY-2835219, abemaciclib], for which the cell cycle distribution result with SK-N-MC cells [4] is listed as “no effect”.
With `C=CCn1c(=O)c2cnc(Nc3ccc(N4CCN(C)CC4)cc3)nc2n1-c1cccc(C(C)(C)O)n1` [MK-1775], the cell cycle distribution entry in the experiment on SK-N-MC cells [4] (500 nM, alone) was “increase of cells in G2/M”.
In the case of `O=C(NOCC1CC1)c1ccc(F)c(F)c1Nc1ccc(I)cc1Cl` [CI-1040], the “viral DNA replication of dl703” value in the experiment with dl703 (1 μM, 50 MOI dl703) was “much lower compared to Ribociclib treated cells”. Besides, in the experiment on UMUC3 cells [1], the cell cycle distribution entry is reported as “clear G1-arrest”. In addition, the “E2F-1 as well as Rb and phRb expression” value in the experiment on UMUC cells (1 μM) was “induced inhibition”.
With `CN(C)C(=O)c1cc2cnc(Nc3ccc(N4CCNCC4)cn3)nc2n1C1CCCC1` [LEE011, ribociclib], the “increase of viral DNA replication of dl703” value in the experiment with dl703 (10 μM, 50 MOI dl703, 48 hours post infection) is roughly 100 fold. Moreover, the cell cycle distribution result in the experiment on UMUC3 cells [1] was “clear G1-arrest”. Besides, the “E2F-1 as well as Rb and phRb expression” value in the experiment on UMUC cells (10 μM) was “induced inhibition”.
`Cc1sc2c(c1C)C(c1ccc(Cl)cc1)=N[C@@H](CC(=O)OC(C)(C)C)c1nnc(C)n1-2` [JQ1, thieno-triazolo-1-4-diazepine]: the cell killing result with SK-N-MC cells [5] is “did not increase cell killing”. Also, the “cell killing capacity of XVir-N-31” value in the experiment with T24 cells [6] (300 nM JQ-1 with 500 nM Palbociclib, low MOIs, 5 days post infection) is “increased the cell killing capacity”. Also, the “cell killing of XVir-N-31” value with T24 cells [6] (mono-therapy with 300 nM JQ1, 10 and 20 MOI) is “did not increase cell killing”.

Usually IC80 stands for the point of the concentration-response curve where the effect stands at 80%. Read a low IC80 as an effect from little substance. For orientation: IC50 means the concentration at which inhibition is half-maximal.

(Values after patent US20210038661A1, “TREATMENT OF TUMORS BY A COMBINATION OF AN ONCOLYTIC ADENOVIRUS AND A CDK4/6 INHIBITOR” (KLINIKUM RECHTS DER ISAR DER TECHNISCHEN UNIVERSITÄT MÜNCHEN, priority 2018, published 2021).)
